Laboratory results taken from the NIST ThermoML archive (doi:10.1021/je050540h).
Numbers after ± are expanded uncertainties.

Test: xn = mol fraction of the nth substance listed
Conditions: Liquid; for speed of sound: 7 kPa; for mass density / viscosity: 101 kPa

CCCC(C)O (centres undefined) [pentan-2-ol] + C1CCCCC1
Conditions	mass density, 293.15 K [kg/m3]	mass density, 298.15 K [kg/m3]	speed of sound, 293.15 K [m/s]	speed of sound, 298.15 K [m/s]	viscosity, 293.15 K [mPa·s]	viscosity, 298.15 K [mPa·s]
x2 = 0	809.04 ± 0.47	805.01 ± 0.48	1250 ± 3	1232 ± 3	4.001 ± 0.093	3.273 ± 0.077
x2 = 0.0495	806.87 ± 0.47	802.77 ± 0.48	1247 ± 3	1229 ± 3	3.606 ± 0.084	2.969 ± 0.071
x2 = 0.1002	804.68 ± 0.47	800.52 ± 0.48	1244 ± 3	1225 ± 3	3.195 ± 0.075	2.658 ± 0.063
x2 = 0.2019	800.29 ± 0.47	–	1238 ± 3	1218 ± 3	2.516 ± 0.06	–
x2 = 0.3067	796.06 ± 0.47	–	1234 ± 3	1213 ± 3	1.922 ± 0.046	–
x2 = 0.4011	792.42 ± 0.48	–	1231 ± 3	1210 ± 3	1.583 ± 0.038	–
x2 = 0.5085	788.62 ± 0.48	–	1230 ± 3	1209 ± 3	1.317 ± 0.032	–
x2 = 0.6066	785.63 ± 0.48	–	1232 ± 3	1211 ± 3	1.17 ± 0.029	–
x2 = 0.7118	782.94 ± 0.48	–	1239 ± 3	1216 ± 3	1.067 ± 0.027	–
x2 = 0.8096	780.86 ± 0.48	–	1247 ± 3	1224 ± 3	1.045 ± 0.026	–
x2 = 0.9049	779.29 ± 0.48	–	1259 ± 3	1235 ± 3	1.009 ± 0.025	–
x2 = 0.9557	778.62 ± 0.48	–	1267 ± 3	1243 ± 3	0.997 ± 0.025	–
